From ChEMBL document CHEMBL5696443 (Clin Cancer Res, 2016)
Active and inactive are the calls of the source.

Experiments:
[1] = target: Testis-specific serine/threonine-protein kinase 1 (Homo sapiens, UniProt Q9BXA7); assay: Inhibition of human TSSK1 using KKKVSRSGLYRSPSMPENLNRPR as substrate in presence of [gamma33P]-ATP by HotSpot assay
[2] = target: Mitogen-activated protein kinase kinase kinase 9 (Homo sapiens, UniProt P80192); assay: Inhibition of human MAP3K9 using casein as substrate in presence of [gamma33P]-ATP by HotSpot assay
Mitogen-activated protein kinase kinase kinase 9, sequence (P80192 whole entry): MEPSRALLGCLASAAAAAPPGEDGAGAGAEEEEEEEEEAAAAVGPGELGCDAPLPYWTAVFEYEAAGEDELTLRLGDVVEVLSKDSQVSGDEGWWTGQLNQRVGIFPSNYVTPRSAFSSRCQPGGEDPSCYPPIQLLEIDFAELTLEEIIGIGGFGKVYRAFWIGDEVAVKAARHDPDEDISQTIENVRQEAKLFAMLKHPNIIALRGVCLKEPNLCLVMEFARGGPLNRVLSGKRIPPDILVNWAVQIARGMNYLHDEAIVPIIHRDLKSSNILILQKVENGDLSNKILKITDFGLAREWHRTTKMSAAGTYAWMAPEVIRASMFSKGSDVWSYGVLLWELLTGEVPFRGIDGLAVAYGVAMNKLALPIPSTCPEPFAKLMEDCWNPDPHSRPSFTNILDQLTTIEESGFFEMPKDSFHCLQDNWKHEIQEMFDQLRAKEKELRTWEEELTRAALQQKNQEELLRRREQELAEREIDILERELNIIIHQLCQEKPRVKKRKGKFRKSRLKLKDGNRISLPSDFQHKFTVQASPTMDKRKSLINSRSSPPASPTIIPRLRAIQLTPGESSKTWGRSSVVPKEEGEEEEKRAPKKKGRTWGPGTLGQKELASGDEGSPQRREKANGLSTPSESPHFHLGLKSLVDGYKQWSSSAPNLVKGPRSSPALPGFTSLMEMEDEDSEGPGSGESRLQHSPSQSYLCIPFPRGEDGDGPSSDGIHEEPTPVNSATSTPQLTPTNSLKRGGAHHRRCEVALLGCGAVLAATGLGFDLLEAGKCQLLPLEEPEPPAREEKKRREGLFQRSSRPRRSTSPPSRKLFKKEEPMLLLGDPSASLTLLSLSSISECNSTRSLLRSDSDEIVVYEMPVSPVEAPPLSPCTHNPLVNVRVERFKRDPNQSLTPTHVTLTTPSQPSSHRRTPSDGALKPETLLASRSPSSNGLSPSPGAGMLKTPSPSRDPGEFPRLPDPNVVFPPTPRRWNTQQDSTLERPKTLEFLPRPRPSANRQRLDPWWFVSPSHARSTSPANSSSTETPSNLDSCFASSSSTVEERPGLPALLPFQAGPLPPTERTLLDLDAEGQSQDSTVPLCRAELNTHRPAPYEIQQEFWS

[3] = target: Serine/threonine-protein kinase SIK2 (Homo sapiens, UniProt Q9H0K1); assay: Inhibition of human SIK2 using AMARAASAAALARRR as substrate in presence of [gamma33P]-ATP by HotSpot assay
[4] = target: Maternal embryonic leucine zipper kinase (Homo sapiens, UniProt Q14680); assay: Inhibition of human MELK using KKLNRTLSFAEPG as substrate in presence of [gamma33P]-ATP by HotSpot assay
Maternal embryonic leucine zipper kinase, sequence (Q14680 whole entry): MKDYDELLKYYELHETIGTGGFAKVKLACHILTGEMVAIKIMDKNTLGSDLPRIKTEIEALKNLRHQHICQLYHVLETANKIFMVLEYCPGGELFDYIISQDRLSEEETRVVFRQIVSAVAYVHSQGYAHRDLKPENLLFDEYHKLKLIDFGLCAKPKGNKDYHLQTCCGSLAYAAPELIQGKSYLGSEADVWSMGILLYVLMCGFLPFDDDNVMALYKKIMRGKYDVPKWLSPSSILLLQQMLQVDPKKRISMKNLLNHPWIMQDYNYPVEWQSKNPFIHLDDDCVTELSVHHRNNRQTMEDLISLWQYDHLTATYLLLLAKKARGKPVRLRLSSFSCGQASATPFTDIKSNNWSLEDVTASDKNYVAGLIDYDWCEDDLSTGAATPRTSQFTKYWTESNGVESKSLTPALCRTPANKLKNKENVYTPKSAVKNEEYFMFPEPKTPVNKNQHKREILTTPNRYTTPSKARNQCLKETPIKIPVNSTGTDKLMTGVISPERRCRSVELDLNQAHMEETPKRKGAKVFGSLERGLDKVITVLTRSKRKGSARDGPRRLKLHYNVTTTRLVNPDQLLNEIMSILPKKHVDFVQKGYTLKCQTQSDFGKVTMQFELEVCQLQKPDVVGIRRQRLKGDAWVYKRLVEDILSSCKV

Ephrin type-B receptor 1 = Ephrin type-B receptor 1 (Homo sapiens, UniProt P54762); assay: Inhibition of human EPHB1 using poly (Glu, Tyr)4:1 as substrate in presence of [gamma33P]-ATP by HotSpot assay
[5] = target: Calcium/calmodulin-dependent protein kinase type II subunit alpha (Homo sapiens) (UniProt Q9UQM7); assay: Inhibition of human CAMK2A at 1 uM using KKALRRQETVDAL as substrate in presence of [gamma33P]-ATP by HotSpot assay relative to control
[6] = target: Cyclin-dependent kinase 5/CDK5 activator 1 (Homo sapiens) (UniProt Q00535+Q15078); assay: Inhibition of human CDK5/p25 at 1 uM using RB protein as substrate in presence of [gamma33P]-ATP by HotSpot assay relative to control; type: protein-complex assay
[7] = target: Casein kinase I isoform gamma-1 (Homo sapiens) (UniProt Q9HCP0); assay: Inhibition of human CSNK1G1 at 1 uM using KRRRAL[pS]VASLPGL as substrate in presence of [gamma33P]-ATP by HotSpot assay relative to control
[8] = target: Dual specificity tyrosine-phosphorylation-regulated kinase 1A (Homo sapiens) (UniProt Q13627); assay: Inhibition of human DYRK1A at 1 uM using RRRFRPASPLRGPPK as substrate in presence of [gamma33P]-ATP by HotSpot assay relative to control
[9] = target: Ephrin type-A receptor 5 (Homo sapiens) (UniProt P54756); assay: Inhibition of human EPHA5 at 1 uM using poly (Glu, Tyr)4:1 as substrate in presence of [gamma33P]-ATP by HotSpot assay relative to control
[10] = target: G protein-coupled receptor kinase 4 (Homo sapiens) (UniProt P32298); assay: Inhibition of human GRK4 at 1 uM using casein as substrate in presence of [gamma33P]-ATP by HotSpot assay relative to control
[11] = target: G protein-coupled receptor kinase 6 (Homo sapiens) (UniProt P43250); assay: Inhibition of human GRK6 at 1 uM using casein as substrate in presence of [gamma33P]-ATP by HotSpot assay relative to control
[12] = target: LIM domain kinase 1 (Homo sapiens) (UniProt P53667); assay: Inhibition of human LIMK1 at 1 uM using cofilin as substrate in presence of [gamma33P]-ATP by HotSpot assay relative to control
[13] = target: Tyrosine-protein kinase Lyn (Homo sapiens, UniProt P07948); assay: Inhibition of human LYNB at 1 uM using poly (Glu, Tyr)4:1 as substrate in presence of [gamma33P]-ATP by HotSpot assay relative to control
[14] = target: MAP kinase-activated protein kinase 2 (Homo sapiens) (UniProt P49137); assay: Inhibition of human MAPKAPK2 at 1 uM using KKLNRTLSVA as substrate in presence of [gamma33P]-ATP by HotSpot assay relative to control
[15] = target: Megakaryocyte-associated tyrosine-protein kinase (Homo sapiens) (UniProt P42679); assay: Inhibition of human MATK at 1 uM using poly (Glu, Tyr)4:1 as substrate in presence of [gamma33P]-ATP by HotSpot assay relative to control
[16] = target: Myosin light chain kinase 2, skeletal/cardiac muscle (Homo sapiens) (UniProt Q9H1R3); assay: Inhibition of human MYLK2 at 1 uM using KKLNRTLSFAEPG as substrate in presence of [gamma33P]-ATP by HotSpot assay relative to control
[17] = test system: Platelet-derived growth factor receptor alpha (Homo sapiens), P16234 [T674I]; assay: Inhibition of human PDGFRalpha T674I mutant at 1 uM using poly (Glu, Tyr)4:1 as substrate in presence of [gamma33P]-ATP by HotSpot assay relative to control
Platelet-derived growth factor receptor alpha (Homo sapiens), P16234 [T674I], sequence (P16234 whole entry T674I): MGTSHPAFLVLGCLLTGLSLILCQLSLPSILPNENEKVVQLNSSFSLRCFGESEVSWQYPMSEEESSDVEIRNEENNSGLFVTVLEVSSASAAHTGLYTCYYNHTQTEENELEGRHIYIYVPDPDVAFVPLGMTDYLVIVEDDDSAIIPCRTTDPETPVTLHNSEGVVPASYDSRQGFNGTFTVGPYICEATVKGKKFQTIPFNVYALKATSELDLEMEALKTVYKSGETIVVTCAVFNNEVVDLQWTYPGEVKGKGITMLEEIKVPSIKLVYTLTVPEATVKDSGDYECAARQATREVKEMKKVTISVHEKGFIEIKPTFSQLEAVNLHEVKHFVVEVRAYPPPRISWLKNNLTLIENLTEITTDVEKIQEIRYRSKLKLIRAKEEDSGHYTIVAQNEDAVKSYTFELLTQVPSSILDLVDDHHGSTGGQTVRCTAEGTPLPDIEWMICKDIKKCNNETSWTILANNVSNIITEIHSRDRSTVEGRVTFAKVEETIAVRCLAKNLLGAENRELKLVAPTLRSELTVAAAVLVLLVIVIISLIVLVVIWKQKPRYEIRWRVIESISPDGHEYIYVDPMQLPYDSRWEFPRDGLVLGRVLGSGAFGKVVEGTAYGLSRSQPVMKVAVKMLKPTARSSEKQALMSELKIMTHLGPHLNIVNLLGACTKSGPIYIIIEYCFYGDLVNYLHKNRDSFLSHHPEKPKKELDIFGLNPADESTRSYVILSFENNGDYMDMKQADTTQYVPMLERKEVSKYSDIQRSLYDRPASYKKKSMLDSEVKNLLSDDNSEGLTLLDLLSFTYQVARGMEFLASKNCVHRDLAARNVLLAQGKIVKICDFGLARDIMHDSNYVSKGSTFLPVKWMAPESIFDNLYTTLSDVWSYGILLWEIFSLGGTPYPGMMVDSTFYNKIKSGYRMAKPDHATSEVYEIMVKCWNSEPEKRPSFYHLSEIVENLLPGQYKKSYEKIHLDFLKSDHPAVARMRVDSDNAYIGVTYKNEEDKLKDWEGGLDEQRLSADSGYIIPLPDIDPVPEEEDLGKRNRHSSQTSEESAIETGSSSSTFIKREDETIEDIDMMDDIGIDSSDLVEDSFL

Homo sapiens = organism: Homo sapiens; assay: Inhibition of human PKA at 1 uM using LCGRTGRRNSI as substrate in presence of [gamma33P]-ATP by HotSpot assay relative to control
[18] = target: Serine/threonine-protein kinase N2 (Homo sapiens) (UniProt Q16513); assay: Inhibition of human PKN2 at 1 uM using LRRASLG as substrate in presence of [gamma33P]-ATP by HotSpot assay relative to control
[19] = target: Ribosomal protein S6 kinase alpha-4 (Homo sapiens) (UniProt O75676); assay: Inhibition of human RPS6KA4 at 1 uM using GRPRTSSFAEG as substrate in presence of [gamma33P]-ATP by HotSpot assay relative to control
[20] = target: Dual specificity protein kinase TTK (Homo sapiens) (UniProt P33981); assay: Inhibition of human TTK at 1 uM using MBP as substrate in presence of [gamma33P]-ATP by HotSpot assay relative to control
Dual specificity protein kinase TTK (Homo sapiens), sequence (P33981 whole entry): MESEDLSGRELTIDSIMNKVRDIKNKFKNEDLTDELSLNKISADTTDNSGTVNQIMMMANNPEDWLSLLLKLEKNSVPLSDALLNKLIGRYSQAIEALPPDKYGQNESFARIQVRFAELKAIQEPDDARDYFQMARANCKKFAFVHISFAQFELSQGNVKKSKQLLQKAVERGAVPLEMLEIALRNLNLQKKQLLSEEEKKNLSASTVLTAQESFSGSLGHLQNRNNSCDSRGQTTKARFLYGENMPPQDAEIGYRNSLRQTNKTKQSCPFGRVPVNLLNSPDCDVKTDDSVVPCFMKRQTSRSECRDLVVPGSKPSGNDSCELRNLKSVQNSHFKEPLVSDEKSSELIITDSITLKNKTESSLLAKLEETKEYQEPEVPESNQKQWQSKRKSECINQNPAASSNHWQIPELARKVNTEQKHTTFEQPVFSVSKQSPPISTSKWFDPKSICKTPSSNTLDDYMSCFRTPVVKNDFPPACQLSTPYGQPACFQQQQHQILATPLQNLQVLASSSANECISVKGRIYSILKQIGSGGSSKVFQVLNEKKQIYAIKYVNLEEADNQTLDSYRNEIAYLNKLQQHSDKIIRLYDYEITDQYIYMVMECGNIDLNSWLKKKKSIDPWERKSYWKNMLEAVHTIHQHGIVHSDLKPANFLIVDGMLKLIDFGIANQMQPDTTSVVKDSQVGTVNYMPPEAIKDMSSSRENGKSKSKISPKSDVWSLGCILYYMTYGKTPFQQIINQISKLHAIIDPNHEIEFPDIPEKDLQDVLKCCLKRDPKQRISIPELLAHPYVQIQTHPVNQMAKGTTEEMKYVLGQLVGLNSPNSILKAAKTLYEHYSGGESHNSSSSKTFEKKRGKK

[21] = target: Mitogen-activated protein kinase kinase kinase 20 (Homo sapiens) (UniProt Q9NYL2); assay: Inhibition of human ZAK at 1 uM using MBP as substrate in presence of [gamma33P]-ATP by HotSpot assay relative to control
Mitogen-activated protein kinase kinase kinase 20 (Homo sapiens), sequence (Q9NYL2 2-800 limits assumed): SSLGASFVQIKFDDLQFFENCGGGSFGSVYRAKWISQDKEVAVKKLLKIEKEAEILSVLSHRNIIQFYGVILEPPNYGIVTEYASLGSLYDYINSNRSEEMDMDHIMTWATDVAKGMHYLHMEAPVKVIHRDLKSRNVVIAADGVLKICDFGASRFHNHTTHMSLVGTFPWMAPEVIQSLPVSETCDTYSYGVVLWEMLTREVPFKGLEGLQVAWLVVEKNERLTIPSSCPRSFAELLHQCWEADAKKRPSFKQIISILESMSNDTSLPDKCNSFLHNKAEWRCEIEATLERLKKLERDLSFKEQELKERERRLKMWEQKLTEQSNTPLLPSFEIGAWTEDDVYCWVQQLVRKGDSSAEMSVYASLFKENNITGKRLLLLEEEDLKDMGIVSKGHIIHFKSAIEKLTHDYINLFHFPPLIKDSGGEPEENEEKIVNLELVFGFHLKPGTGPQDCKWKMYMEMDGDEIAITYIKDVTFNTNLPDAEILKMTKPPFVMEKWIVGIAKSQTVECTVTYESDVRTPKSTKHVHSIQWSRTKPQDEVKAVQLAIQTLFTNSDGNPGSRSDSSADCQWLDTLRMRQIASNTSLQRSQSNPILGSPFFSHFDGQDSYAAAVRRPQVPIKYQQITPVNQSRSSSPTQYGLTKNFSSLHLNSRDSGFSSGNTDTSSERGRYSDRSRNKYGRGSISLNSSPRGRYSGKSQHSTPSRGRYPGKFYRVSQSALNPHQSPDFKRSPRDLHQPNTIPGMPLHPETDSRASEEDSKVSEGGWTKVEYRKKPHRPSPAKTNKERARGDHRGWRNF

Mus musculus = assay: In vivo inhibition of ALK signaling in SCID Beige mouse xenografted with ALK positive human KARPAS-299 cells assessed as reduction in phosphorylated ALK level at 10 to 50 mg/kg, po administered as single dose and measured at 6 to 24 hrs by immunoblot analysis; type: functional, organism-based; details: dose 10-50 mg/kg, time 6-24 hrs
[22] = test system: EML4-ALK (Homo sapiens), Q9UM73+Q9HC35 [UNDEFINED MUTATION]; details: BaF3, time 3-5 weeks
[23] = test system: EML4-ALK (Homo sapiens), Q9UM73+Q9HC35 [F1174V]; details: BaF3, time 3-5 weeks
[24] = test system: EML4-ALK (Homo sapiens), Q9UM73+Q9HC35 [F1174C]; details: BaF3, dose 500.0 nmol/L, time 3-5 weeks
[25] = test system: EML4-ALK (Homo sapiens), Q9UM73+Q9HC35 [G1202R]; details: BaF3, dose 500.0 nmol/L, time 3-5 weeks

Testis-specific serine/threonine-protein kinase 1, sequence (Q9BXA7 whole entry): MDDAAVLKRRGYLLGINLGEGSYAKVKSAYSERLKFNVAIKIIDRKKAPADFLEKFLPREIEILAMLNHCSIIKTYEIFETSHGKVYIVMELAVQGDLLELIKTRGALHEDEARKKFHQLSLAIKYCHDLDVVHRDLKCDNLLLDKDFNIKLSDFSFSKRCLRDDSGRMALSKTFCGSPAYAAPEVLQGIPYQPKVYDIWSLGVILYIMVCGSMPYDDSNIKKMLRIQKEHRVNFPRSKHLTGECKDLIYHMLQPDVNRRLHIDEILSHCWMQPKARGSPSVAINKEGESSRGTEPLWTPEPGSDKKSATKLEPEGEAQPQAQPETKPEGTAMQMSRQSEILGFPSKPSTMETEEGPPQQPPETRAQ

COc1cc(N2CCC(N3CCN(C)CC3)CC2)ccc1Nc1ncc(Cl)c(Nc2ccccc2P(C)(C)=O)n1 [BRIGATINIB]
> 1000 nM: IC50 (Ephrin type-B receptor 1)
< 90%: inhibition [5] | inhibition [6] | inhibition [7] | inhibition [8] | inhibition [9] | inhibition [10] | inhibition [11] | inhibition [12] | inhibition [13] | inhibition [14] | inhibition [15] | inhibition [16] | inhibition [17] | inhibition (Homo sapiens) | inhibition [18] | inhibition [19] | inhibition [20] | inhibition [21]
218 nM: IC50 [2]
416 nM: IC90 [22]
895 nM: IC50 [4]
active: Activity (Mus musculus) | inhibition [24] | inhibition [25]
195 nM: IC90 [23]
466 nM: IC50 [3]
4.4 nM: IC50 [1]
